# Tests used:
# Assay type in all cases: cell-based, Human
# IGROV [1] = assay: Matrigel invasion assay, IGROV cells; conditions: blebbistatin 100 μM in top chamber, 18-24 hours, vs untreated
# Protocol: (§1) Cancer cells were seeded at a cell density of 25,000-70,000 on either Matrigel coated or uncoated filters and allowed to invade for 18-24 hours towards 10% FBS in the lower chamber. Cells invading and migrating through the Matrigel layer were visualized and counted as described^9. Percent cell migration or invasion was determined as the fraction of total cells that invaded through the filter. Blebbistatin (100 μM)^10 where used, was added to the top chamber of the transwell and migration and invasion allowed to proceed. Each assay was set up in duplicate, and each experiment was conducted at least 3 times with 4 random fields from a 10× magnification analyzed for each membrane.
# IGROV [2] = assay: Transwell migration assay, IGROV cells; conditions: blebbistatin 100 μM in top chamber, vs untreated
# Protocol: as §1
# IGROV [3] = assay: Magnetic tweezers assay (3DFM) of cell stiffness, IGROV cells; conditions: blebbistatin 100 μm added 30 mins before beads, vs untreated
# Protocol: (§2) The Three Dimensional Force Microscope (3DFM)^11 was used for applying controlled and precise 60-100 pN local force (FIG. 6) on 2.8 micron magnetic beads (DYNAL Biotech, Oslo, Norway) coated with fibronectin (Sigma Aldrich, St. Louis, Mo.). Briefly, cells were plated on coverslips followed by addition of the beads. Cells and beads were incubated for 30 minutes followed by force application and resultant bead displacements were recorded and analyzed. The displacement of the beads was recorded with high-speed video camera (Pulnix, JAI, Ca) and tracked using Video Spot Tracker (http://cismm.cs.unc.edu). The mean creep compliance was calculated from the tracked displacements as described. Spring constants were derived by fitting the compliance curves to a Jeffrey's model for viscoelastic liquids (FIG. 6). […]
# (§3) To further examine the relationship between cancer cell deformability and invasive potential, the effective shear modulus (here on referred to as the stiffness, k), of the cell was calculated by fitting a modified Kelvin Voigt model^12 to the compliance using a least squares fit (see FIG. 6). […] In addition, the variability in stiffness correlates directly with a specific measure of metastatic progression as determined using in vitro three-dimensional invasion assays.
# Ovca429TβRIII cells [4] = assay: Matrigel invasion assay, Ovca429TβRIII cells; conditions: Ovca429TβRIII cells treated with blebbistatin, vs untreated
# Protocol: as §1
# Ovca429TβRIII cells [5] = assay: Magnetic tweezers assay (3DFM) of cell stiffness, Ovca429TβRIII cells; conditions: Ovca429TβRIII cells treated with blebbistatin
# Protocol: as §2, §3
# IGROV [6] = assay: Viability of IGROV cells under blebbistatin; conditions: concentration that disrupted cortical pMLC localization
# IGROV [7] = assay: Immunofluorescence of cortical pMLC localization, IGROV cells; conditions: blebbistatin
# Protocol: Immunoflourescence was performed essentially as described previously^9 and images were obtained using a Nikon inverted microscope.
smiles,measurement,setting,value
Cc1ccc2c(c1)C(=O)C1(O)CCN(c3ccccc3)C1=N2 (centres unmarked) [Blebbistatin],increase of cell invasion,IGROV [1],2.5 fold
same,increase of cell migration,IGROV [2],4 fold
same,decrease of cell stiffness,IGROV [3],2 fold
same,increase of invasiveness,Ovca429TβRIII cells [4],four fold
same,stiffness K (spring constant),Ovca429TβRIII cells [5],1.48 Pa
same,decrease of stiffness,Ovca429TβRIII cells [5]; vs untreated,two fold
same,effect on viability,IGROV [6],did not affect viability
same,cortical pMLC localization,IGROV [7],disrupted cortical pMLC localization

# From patent publication US20130089869A1, “Methods For and Uses of Mechanical Stiffness Profiling of Cancer Cells” (DUKE UNIVERSITY, priority 2011, published 2013)
